This note sets out measurements from patent US11298363B2, “Triazolobenzazepines as vasopressin V1a receptor antagonists” (RICHTER GEDEON NYRT., priority 2017, dated 2022).

In assay [1] the target is mouse vasopressin V1a receptor (Mus musculus, UniProt Q62463). Put plainly: Mouse vasopressin V1a receptor binding assay. As to conditions: 1321N1 cell membranes; read-out: Ki (nM) on mV1a cell line. An excerpt:
Mouse Vasopressin V1a Receptor Binding Assay Cells and Radioligand
The immortalized 1321N1 cell line (B9/1321N1 clone) constitutively and stably expressing Mouse vasopressin V1a receptor vasopressin (8-L-Arginine), [Phenylalanyl-3,4,5-^3H(N)] labelled compound (Perkin Elmer Life and Analytical Sciences) as radioligand were used to determine the affinity of the prepared compounds.
Membrane-preparation: Membrane preparation of immortalized 1321N1 cells expressing the propagated mouse Vasopressin V1a receptor was made according to Jarvis's method (Jarvis et al., J Pharmacol Exp Ther […], 310:407-16). Cells were suspended in preparative buffer (50 mM Tris, 1 mM EDTA, 0.1 mM PMSF) and homogenized with glass homogenizing potter. To separate the raw membrane fraction two consecutive centrifugation procedures (40,000 g for 25 minutes at 4° C.) were executed, then the membrane was taken into the preparatory buffer during a final washing step, it was divided into aliquots which were stored at −80° C. until the time of measurement.
The protein content of the prepared membrane was determined according to Lowry's method using standard dilution line of bovine serum albumin (BSA) (Lowry et al., J Biol Chem 1951, 193:265-75).
To determine the final affinity value, the results of at least two independent experiments were taken into account.
Non-specific binding values were determined in the presence of an unlabeled 1.2×10^−6 M (Arg^8)-vasopressin. Samples were incubated in a total volume of 0.33 ml for 60 minutes at 27° C. Membrane-bound and free ligands were separated by filtration through a 0.5% polyethyleneimine-impregnated UniFilter® GF/B™ After drying the filter plates, 40 μl Microscint-20 (Packard) scintillation cocktail was added to the samples. Finally, radioactivity was measured using MicroBeta^2 Microplate Counter (Perkin Elmer).
The radioligand clamping ability of a substance is determined in at least two independent experiments. Specific radioligand binding can be defined as the difference between total and non-specific binding in the presence of a saturation amount of the unlabeled ligand or different concentrations of the substance to be tested. The results are given as a percentage of inhibition of the specific binding achieved in the presence of the substance to be tested.
The IC50 data (i.e. the concentration of the unknown substance which displaces 50% of specific bound radioligand) is calculated from the concentration-displacement curve using the sigmoid fitting mathematical method y=(A1−A2)/(1+(x/x0)p)+A2 with Origin 7.5. software (OriginLab Corporation, Northampton, USA). During fitting, the asymptotes are not fixed. The Ki values (inhibition constant) are given with Cheng-Prusoff equation Ki=IC50/[1+(L/KD)] wherein [L] is the radioligand concentration used in the experiment and [KD] is the affinity of the radioactively labelled ligand for the given receptor. The KD is determined beforehand using the Scatchard curve.

For assay [2], the target named is mouse V1a receptor (Mus musculus, UniProt Q62463). Kind of assay: Functional V1a in vivo test: inhibition of oxytocin-induced scratching behaviour. As to conditions: mice. An outline of the steps: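 Male NMRI mice received test substance or vehicle, then oxytocin 0.3 mg/kg s.c. Scratching was recorded by LABORAS after 1 h cage habituation. Inhibition was expressed as % between the saline (0%) and vehicle-plus-oxytocin (100%) group means, analysed by ANOVA with Tukey test.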

Each structure is given as a SMILES string. Marks after values point to notes of the source that are not given here.

Sequence of mouse V1a receptor (Q62463 whole entry): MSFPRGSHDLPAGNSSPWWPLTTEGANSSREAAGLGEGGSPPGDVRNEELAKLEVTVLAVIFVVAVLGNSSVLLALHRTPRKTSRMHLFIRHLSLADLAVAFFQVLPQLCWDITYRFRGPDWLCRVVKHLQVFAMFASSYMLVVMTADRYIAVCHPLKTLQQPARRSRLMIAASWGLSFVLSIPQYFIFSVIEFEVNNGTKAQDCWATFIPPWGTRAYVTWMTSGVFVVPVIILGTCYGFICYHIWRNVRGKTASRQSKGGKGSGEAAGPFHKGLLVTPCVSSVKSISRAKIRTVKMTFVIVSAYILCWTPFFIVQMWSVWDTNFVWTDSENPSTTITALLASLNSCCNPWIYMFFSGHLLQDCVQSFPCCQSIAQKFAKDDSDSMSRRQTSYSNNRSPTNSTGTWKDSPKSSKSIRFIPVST
Sequence of mouse vasopressin V1a receptor (Q62463 whole entry): as above

The Ki is a measure of affinity in units of concentration, obtained from inhibition or displacement. In the case of `N[C@@H]1Cc2cc(Cl)ccc2-n2c(nnc2[C@H]2CC[C@H](Oc3ccccn3)CC2)C1` [Example 8, (5R)-8-chloro-1-[trans-4-(pyridin-2-yloxy)cyclohexyl]-5,6-dihydro-4H-[1,2,4]triazolo[4,3-a][1]benzazepine-5-amine], the Ki in assay [1] came to 161 nM. Also, the “inhibition (%) of oxytocin-induced scratching behaviour response” value (“inhibition (%)” for short) in assay [2] (10 mg/kg p.o. pretreatment) was determined as 64%.
For the molecule `CC(=O)NC1Cc2cc(Cl)ccc2-n2c(nnc2[C@H]2CC[C@H](Oc3ccccn3)CC2)C1` (stereo partly drawn) [Example 9, N-{8-chloro-1-[trans-4-(pyridin-2-yloxy)cyclohexyl]-5,6-dihydro-4H-[1,2,4]triazolo[4,3-a][1]benzazepin-5-yl}acetamide], the Ki in assay [1] stood at 31 nM. The “inhibition (%)” value in assay [2] (after i.p. treatment (table title: 10 mg/kg)) is 106* %.
In the case of `O=C1Cc2cc(Cl)ccc2-n2c(nnc2[C@H]2CC[C@H](Oc3ccccn3)CC2)C1` [Example 54, 8-chloro-1-[trans-4-(pyrin-2-yloxy)cyclohexyl]-4H-[1,2,4]triazolo[4,3-a][1]benzazepin-5(6H)-one], in assay [1], the Ki worked out at 43 nM. The “inhibition (%)” value in assay [2] (10 mg/kg p.o. pretreatment) is recorded as 70%.
The corresponding values for `OC1Cc2cc(Cl)ccc2-n2c(nnc2[C@H]2CC[C@H](Oc3ccccn3)CC2)C1` (stereo partly drawn) [Example 55, 8-chloro-1-[trans-4-(pyridin-2-yloxy)cyclohexyl]-5,6-dihydro-4H-[1,2,4]triazolo[4,3-a][1]benzazepin-5-ol] are 21 nM and 91%.
Regarding `O[C@@H]1Cc2cc(Cl)ccc2-n2c(nnc2[C@H]2CC[C@H](Oc3ccccn3)CC2)C1` [Example 57, (5R)-8-chloro-1-[trans-4-(pyridin-2-yloxy)cyclohexyl]-5,6-dihydro-4H-[1,2,4]triazolo[4,3-a][1]benzazepin-5-ol], in assay [1], the Ki came to 12 nM. Moreover, the “inhibition (%)” value in assay [2] (10 mg/kg p.o. pretreatment) was determined as 84%.
The corresponding values for `Brc1ccc2c(c1)CC1(Cc3nnc([C@H]4CC[C@H](Oc5ccccn5)CC4)n3-2)OCCO1` [Example 62, 8′-bromo-1′-[trans-4-(pyridin-2-yloxy)cyclohexyl]-4′H,6′H-spiro[1,3-dioxolane-2,5′ [1,2,4]triazolo[4,3-a][1]benzazepine]] are 0.6 nM and 99%.
The corresponding values for `c1ccc(O[C@H]2CC[C@H](c3nnc4n3-c3ccccc3CC3(C4)OCCO3)CC2)nc1` [Example 63, 1′-[trans-4-(pyridin-2-yloxy)cyclohexyl]-4′H,6′H-spiro[1,3-dioxolane-2,5′-[1,2,4]triazolo[4,3-a][1]benzazepine]] are 13 nM and 49%.
